Molecules are shown by their SMILES. Bounds are passed on as bounds.

The nature of series [1]: Fecal recovery of orally administered compounds. It counts as in vivo, Sprague-Dawley rats. As to conditions: rats, oral gavage, nominal 10 mg/kg (actual 7.6-11 mg/kg), feces 0-48 hr after dosing. Here is the method:
Quantitative determination of test compound level in feces after oral gavage was performed using the same set of animals used to determine test compound concentration in plasma (Example 30). The animals were kept in metabolic cages and feces were collected from the time of dosing until 48 hr after dosing. Upon collection, feces was dried by lyophilization and ground to a visually homogenous powder. Duplicate samples of ground feces from each individual animal were weighed out and extracted using organic solvent. Extracted samples were then diluted into mobile phase and test compound levels were quantitatively determined by LC-MS/MS analysis as described in “Example 30” except that the standard curve was prepared in a feces matrix. Extraction conditions were not optimized for individual compounds, and thus may represent a minimal level of recovery.

Another series deals with T1, rat NaP2b (SLC34A2) (Rattus norvegicus, UniProt Q9JJ09).
T1 construct: host or cells: HEK293
T1 sequence (Q9JJ09 1-695): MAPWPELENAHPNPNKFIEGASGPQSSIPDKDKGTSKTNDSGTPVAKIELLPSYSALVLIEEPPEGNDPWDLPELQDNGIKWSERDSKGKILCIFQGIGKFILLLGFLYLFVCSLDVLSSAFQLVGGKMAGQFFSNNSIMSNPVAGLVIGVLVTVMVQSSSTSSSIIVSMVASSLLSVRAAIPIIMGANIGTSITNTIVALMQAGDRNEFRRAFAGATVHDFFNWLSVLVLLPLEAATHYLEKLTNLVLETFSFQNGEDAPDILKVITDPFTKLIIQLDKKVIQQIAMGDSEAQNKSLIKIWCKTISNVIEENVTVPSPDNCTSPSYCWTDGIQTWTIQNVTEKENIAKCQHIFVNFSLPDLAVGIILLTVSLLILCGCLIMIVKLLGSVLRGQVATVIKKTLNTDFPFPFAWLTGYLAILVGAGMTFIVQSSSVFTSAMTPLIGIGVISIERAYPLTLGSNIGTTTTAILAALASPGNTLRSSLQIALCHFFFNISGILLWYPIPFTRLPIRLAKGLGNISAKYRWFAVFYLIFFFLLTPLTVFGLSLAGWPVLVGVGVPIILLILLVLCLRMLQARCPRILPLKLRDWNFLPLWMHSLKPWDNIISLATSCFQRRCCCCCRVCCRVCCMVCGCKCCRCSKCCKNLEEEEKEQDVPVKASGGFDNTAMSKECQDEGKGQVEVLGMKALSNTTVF
Description: NaP2b-mediated Pi transport: 33P phosphate uptake into transfected HEK293 cells. It counts as cell-based. Conditions: 100 uM KH2PO4, PiT-silencing agent, read-out: pIC50 range for rat Nap2b (converted).

A further series concerns the target T2, human NaP2b (SLC34A2) (Homo sapiens, UniProt O95436).
T2 construct: host or cells: HEK293
T2 sequence (O95436 1-690): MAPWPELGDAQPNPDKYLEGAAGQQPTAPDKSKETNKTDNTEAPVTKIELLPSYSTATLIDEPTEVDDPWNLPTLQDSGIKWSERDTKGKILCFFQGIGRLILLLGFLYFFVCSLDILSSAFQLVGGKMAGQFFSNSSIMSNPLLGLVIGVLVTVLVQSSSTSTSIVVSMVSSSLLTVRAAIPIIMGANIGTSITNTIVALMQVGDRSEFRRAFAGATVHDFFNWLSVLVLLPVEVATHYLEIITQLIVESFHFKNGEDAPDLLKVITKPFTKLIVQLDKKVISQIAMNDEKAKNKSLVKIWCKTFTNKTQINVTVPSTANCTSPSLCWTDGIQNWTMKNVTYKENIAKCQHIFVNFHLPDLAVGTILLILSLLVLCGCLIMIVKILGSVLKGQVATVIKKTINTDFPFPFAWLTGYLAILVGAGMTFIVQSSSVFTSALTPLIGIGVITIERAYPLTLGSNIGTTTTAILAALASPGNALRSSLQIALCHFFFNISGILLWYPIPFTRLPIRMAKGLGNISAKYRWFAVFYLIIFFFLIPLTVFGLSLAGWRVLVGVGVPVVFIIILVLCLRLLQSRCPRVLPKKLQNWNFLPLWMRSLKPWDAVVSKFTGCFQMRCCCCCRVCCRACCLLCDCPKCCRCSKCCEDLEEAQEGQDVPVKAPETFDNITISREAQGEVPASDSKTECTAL
Described as above. It is filed as cell-based. As to conditions: human protein with threonine inserted after residue 37 and N39D, 100 uM KH2PO4, read-out: pIC50 range for human Nap2b (converted). Summed up: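 Transiently transfected HEK293 cells, human clone carrying Thr insertion after residue 37 and N39D; PiT transport silenced pharmacologically. ^33P-phosphate uptake in sodium buffer (100 uM KH2PO4, pH 7.4) versus choline buffer, 3-30 min at room temperature, twelve concentrations 0.1 nM–30 uM in duplicate; scintillation counting, pIC50 derived.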

A short description of series [2]: Determination of compound Cmax and AUC after oral gavage. Conditions: Sprague-Dawley, rat plasma, nominal 10 mg/kg (actual 7.6-11 mg/kg), sampling 0.5-4 h. It counts as in vivo, Sprague-Dawley rats. Here is the method: Sprague-Dawley rats were orally gavaged with test article at a nominal dose of 2.5 or 10 mg/kg and blood was collected at 0.5, 1, 2 and 4 h. Blood samples were processed to plasma using K2EDTA as an anticoagulant. Plasma samples were treated with acetonitrile containing an internal standard, precipitated proteins removed by centrifugation. Supernatants were analyzed by LC-MS/MS and compound concentrations were determined by interpolated from a standard curve prepared in plasma. All compounds were orally dosed at the dosage shown, and pharmacokinetic parameters determined

What is called AUC is concentration integrated over time. High values mean more exposure, low ones less exposure. As to `O=C(O)CCOCCOCCOCCNC(=O)Cc1cccc(SCc2cccc(C(=O)Nc3ccc(N4CCCCC4)cc3C(=O)Nc3ccn(-c4cccc(C(F)(F)F)c4)n3)c2)c1` [Example 26, 2-Oxo-1-(3-((3-((4-(piperidin-1-yl)-2-((1-(3-(trifluoromethyl)phenyl)-1H-pyrazol-3-yl)carbamoyl)phenyl)carbamoyl)benzyl)thio)phenyl)-6,9,12-trioxa-3-azapentadecan-15-oic acid], in series [1], the “% recovered in feces” value is 9.5%. Further, the IC50 at rat NaP2b (SLC34A2) and at human NaP2b (SLC34A2) was less than 1000 nM throughout. This compound also showed an AUC in series [2] of less than 3 ng·h/mL.
As usually defined, the Cmax is the highest concentration seen after dosing. Take `CN(CCN1CCOCC1)C(=O)c1cccc(C(=O)Nc2ccc(Cl)cc2C(=O)Nc2ccn(-c3cccc(C(F)(F)F)c3)n2)c1` [Example 14, N1-(4-Chloro-2-((1-(3-(trifluoromethyl)phenyl)-1H-pyrazol-3-yl)carbamoyl)phenyl)-N3-methyl-N3-(2-morpholinoethyl)isophthalamide 2,2,2-trifluoroacetate]: the “% recovered in feces” value in series [1] was determined as 6.6%. Also, the IC50 at rat NaP2b (SLC34A2) is less than 1000 nM. The IC50 at human NaP2b (SLC34A2) is less than 1000 nM. In series [2], the AUC is 788 ng·h/mL and the Cmax was determined as 487 ng/mL.
Turning to `CN(CCN1CCOCC1)C(=O)c1cccc(C(=O)Nc2ccc(N3CCCCC3)cc2C(=O)Nc2ccn(-c3cccc(C(F)(F)F)c3)n2)c1` [Example 11, N1-Methyl-N1-(2-morpholinoethyl)-N3-(4-(piperidin-1-yl)-2-((1-(3-(trifluoromethyl)phenyl)-1H-pyrazol-3-yl)carbamoyl)phenyl)isophthalamide], in series [1], the “% recovered in feces” value is recorded as 47%. The IC50 at rat NaP2b (SLC34A2) and at human NaP2b (SLC34A2) was less than 1000 nM throughout.

For the origin of these results see US9289430B2, “Compounds and methods for inhibiting phosphate transport” (Ardelyx, Inc., priority 2010, dated 2016).
